Source: patent US20250018030A1, “PHARMACEUTICAL COMPOSITION FOR PROMOTING CANCER IMMUNOTHERAPY AND METHOD FOR PROMOTING CANCER IMMUNOTHERAPY” (China Medical University, priority 2023, published 2025)

Key:
Tc1 cells = experiment: Immunoblotting of PI3K/AKT/mTOR and STAT4 in Tc1 cells; type: cell-based, Mouse
Procedure: The protein concentrations of the total cell lysate or the extracted histones were determined by a Bradford assay (Bio-Rad Laboratories). Immunoblot analysis was performed with 10% sodium dodecyl sulfate-polyacrylamide gel electrophoresis, followed by overnight incubation with primary antibodies (1:1000 dilution) and incubation with horseradish peroxidase-conjugated secondary antibodies (1:5000 dilution; GeneTex). The polyvinylidene difluoride membranes were probed with antibodies against UCP2, pPI3K/PI3K, pAKT/AKT, pmTOR/mTOR, pSTAT1/STAT1, pSTAT4/STAT4, and H3K9Ac, which were purchased from Cell Signaling Technology or Genetex. Actin or Lamin B1 (Merck-Millipore) was used as the loading control. Signals were detected using an ECL solution (GE) and optical density quantified using ImageJ software.

Pan18 cells = experiment: Tumorigenicity assay, Pan18 subcutaneous implantation (PDAC-bearing mice); type: in vivo
Procedure: (§1) Monoclonal antibodies were purchased from BD Biosciences or eBioscience. For intracellular cytokine staining (ICS), cells were first restimulated by PMA/ionomycin for 5 hours in the presence of GolgiStop (BD Biosciences), followed by surface epitope staining markers before being fixed/permeabilized (BD Cytofix/Cytoperm™) and stained with antibodies targeting intracellular antigens. Cells were finally fixed with 1.5% formaldehyde for 10 minutes at room temperature and analyzed on a FACSVerse flow cytometer (BD Bioscience). Data were analyzed using FlowJo software (Tree Star Inc.).
(§2) For Pan18-subcutaneous implantation, 5×10^5 Pan18 cells were administered to wild-type (WT) or IL-17^−/− mice. Genipin (5 mg/kg, 10 mg/kg, or 30 mg/kg, i.p., every two days) was administered to Pan18-bearing mice for 3 weeks. For 3036-subcutanous implantation, 2×10^5 3036 cells were administered to WT mice. Genipin (10 mg/kg, i.p., every two days) and recombinant anti-IL-17 receptor antibody (αIL-17RA) (1 mg/kg, i.v., once a week) were administered to 3036-bearing mice for 3 weeks. Tumor volumes were evaluated every 2 days. For the orthotopic tumor modelling, mice pancreases were injected with 2×10^5 Pan18 cells and monitored for tumor growth weekly using IVIS kinetics imaging system (Caliper Life-Sciences). Genipin (10 mg/kg, i.p., every two days) or αIL-17RA (1 mg/kg, i.v., once a week) was administered 1 week after tumor implantation. Mice were sacrificed 35 days after tumor induction and tumors weighed. For spontaneous pancreatic cancer model, Cre-dependent conditional knockin mutations of KrasG12D Kras^+/LSLG12D mice (B6; 129-Kras2) were obtained from the Mouse Models of Human Cancer Consortium. Elas-CreERT; Kras^+/LSLG12D mice was generated by breeding Kras^+/LSLG12D mice with Elas-CreER mice obtained from the Level Transgenic Center. To induce the expression of Kras^+/LSLG12D in acinar cells, 5-week-old Elas-CreERT; Kras^+/LSLG12D male mice were injected with 100 μl of tamoxifen (20 mg/ml, i.p., three times per week) for 1 week. To induce chronic inflammation and tumors, 100 μl of cerulein (50 μg/ml, i.p., six times per week) (BACHEM) was given to the mice for 3 weeks. Then, the mice were injected with genipin (10 mg/kg, i.p., every two days) and αIL-17RA (1 mg/kg, i.v., once a week) until the end of the experiment, and overall survival was monitored. For genetically CD4/CD8-specific UCP2 deletion tumor modelling, we generated CD4Cre×UCP2^f/f mice by crossing loxP-UCP2-loxP mice with CD4Cre mice. CD4Cre×UCP2^f/f, WT, and loxP control mice underwent subcutaneous implantation of 2×10^5 Pan18 cells, followed by treatment with αIL-17RA (1 mg/kg, i.v., once a week) for 3 weeks. For melanoma modelling, IL-17/-and WT mice underwent subcutaneous implantation of 5×10^5 B16F10 cells, followed by treatment with genipin (10 mg/kg, i.p., every two days) for 3 weeks. For CD8 depletion tumor modelling, IL-17^−/− mice underwent subcutaneous implantation of 2×10^5 Pan18 cells, followed by treatment with genipin (10 mg/kg, i.p., every two days) and CD8 neutralizing antibody (5 mg/kg, i.v., once a week) for 3 weeks. Tumor volumes were evaluated every 3 days.
Serum levels of IFN-γ, IL-17, TNF-α, IL-12, IL-6, and TGF-β were measured using commercial enzyme-linked immunosorbent assay (ELISA) kits (BD Biosciences; R&D systems; BioLegend) according to the manufacturer's protocol.
Total protein concentration of the tumor lysates was quantified by a Bradford assay. Tumoral chemokine profiles were determined by analyzing 250 μg protein from the tumor lysates using a Proteome Profiler™ Mouse Chemokine Array Kit (ARY020, R&D Systems) according to the manufacturer's instructions. […]

B16F10 cells = experiment: Melanoma model, B16F10 subcutaneous implantation; type: in vivo; details: IL-17−/− mice
Procedure: as §1, §2

[1] = IL-17−/− mice, genipin 5 or 10 mg/kg, dose-dependent, FIG. 5C
[2] = IL-17−/− mice, genipin, data not shown
[3] = WT mice, escalating doses of genipin, FIG. 3S

COC(=O)C1=CO[C@@H](O)[C@@H]2C(CO)=CC[C@H]12 [genipin]
STAT4 levels / activation (Tc1 cells; genipin 12 hours, FIG. 2Q): STAT4 activation
Expression of mTOR and its upstream kinases PI3K and AKT (Tc1 cells; genipin-treated Tc1 cells): increased
Tumor growth (tumor volume, tumor weight) (Pan18 cells; IL-17−/− mice, genipin 5 or 10 mg/kg i.p. every two days, 3 weeks, FIG. 5A-5B): synergistic effect to inhibit tumor growth
Serum IFN-γ (Pan18 cells; [1]): increased
Serum IL-12 (Pan18 cells; [1]): increased
Serum TNF-α (Pan18 cells; [1]): increased
Numbers of Tc1 cells (Pan18 cells; IL-17−/− mice, genipin, FIG. 5D): increased numbers of Tc1 cells
Numbers of MDSC (Pan18 cells; IL-17−/− mice, genipin, FIG. 5G): decreased numbers of MDSC
IL-17-ablation driven change in CCL2 level (Pan18 cells; [2]): had no effects
IL-17-ablation driven change in CXCL10 level (Pan18 cells; [2]): had no effects
Absolute numbers of Tc1 cells (Pan18 cells; WT mice, escalating doses of genipin i.p. every two days, 3 weeks, FIG. 3A-3C): increases in the absolute numbers
Serum IFN-γ (Pan18 cells; [3]): increased
Serum IL-6 (Pan18 cells; [3]): increased
Serum IL-12 (Pan18 cells; [3]): increased
Serum TNF-α (Pan18 cells; [3]): increased
Serum IL-17 (Pan18 cells; WT mice, escalating doses of genipin, end of experiment, FIG. 3S): increased
Tumorigenesis (tumor volume, tumor weight) (Pan18 cells; WT mice, genipin alone, FIG. 3T-3U): did not suppress tumorigenesis
Absolute numbers of Th1 cells (Pan18 cells; WT mice, genipin i.p. every two days, 3 weeks, FIG. 3D-3F): increases in the absolute numbers
Numbers of Tc17 cells (Pan18 cells; WT mice, genipin i.p. every two days, 3 weeks, FIG. 3G-3I): increased
Numbers of Th17 cells (Pan18 cells; WT mice, genipin i.p. every two days, 3 weeks, FIG. 3J-3L): increased
Numbers of Treg cells in the lymph nodes and spleens (Pan18 cells; WT mice, genipin i.p., FIG. 3M-3O): decreased
Numbers of MDSC in the lymph nodes and spleens (Pan18 cells; WT mice, genipin i.p., FIG. 3P-3R): decreased
Tumor infiltrating MDSC (Pan18 cells; WT mice, genipin i.p., tumor): no changes
Tumor infiltrating Tc1 cells (Pan18 cells; WT mice, genipin i.p., tumor): no changes
Tumor infiltrating Th1 cells (Pan18 cells; WT mice, genipin i.p., tumor): no changes
Tumor growth (tumor volume) (B16F10 cells; genipin 10 mg/kg i.p. every two days, 3 weeks, FIG. 7B): additional effect on the inhibition of tumor growth
Population of Tc1 cells (B16F10 cells; genipin 10 mg/kg, FIG. 7C): increased the expansion of Tc1 cells
Population of Th1 cells (B16F10 cells; genipin 10 mg/kg, FIG. 7D): not significantly impacting
Population of Treg cells (B16F10 cells; genipin 10 mg/kg, FIG. 7E): not significantly impacting
Prevalence of MDSC (B16F10 cells; genipin 10 mg/kg, FIG. 7F): decreasing prevalence of MDSC
